Experimental data published in patent publication US20230227427A1, “IL-17A MODULATORS” (SANOFI, priority 2010, published 2023).
Where two headings read alike, the source gives them in different places.

Molecular target: T1, human recombinant IL-17A (Homo sapiens, UniProt Q16552)
T1 construct: purchased R&D Systems 7955-IL/CF
T1 sequence (Q16552 24-155): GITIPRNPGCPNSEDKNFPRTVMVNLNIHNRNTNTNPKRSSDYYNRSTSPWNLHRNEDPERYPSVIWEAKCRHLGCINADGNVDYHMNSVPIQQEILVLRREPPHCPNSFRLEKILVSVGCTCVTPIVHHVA
Test: IL-17A AlphaLISA assay (block binding of IL-17A to its receptor IL-17RA)
Conditions: read-out: AlphaLISA pIC50 (converted)
Method: The ability of the compounds to block binding of IL-17A to its receptor, IL-17RA, was analysed in a competition assay using AlphaLISA technology (Perkin Elmer). The assay is a bead based AlphaLISA where the IL-17RA is captured on the acceptor bead via an Fc tag and IL-17A is captured on the streptavidin donor bead via a biotinylated anti-IL17A antibody.
Assay buffer was prepared by adding 0.05% Tween-20 (v/v) and 0.1% BSA to Phosphate Buffered Saline (PBS). The assay was carried out in 384-well white low volume plates (Corning 4512). 10 µL of a 7.5 nM stock of human recombinant IL-17A (R&D Systems 7955-IL/CF) diluted in assay buffer was dispensed into the assay plate and compounds or DMSO vehicle control were added in a volume of 75 nL using a D300 dispenser (Hewlett Packard). The compounds were pre-incubated with the IL-17A for 24 h at room temperature (or for 30 min, where indicated by * in Table A below) prior to addition of 5 μL of a 5 nM stock of human recombinant IL-17RA/Fc chimera (R&D Systems 177-IR-100) diluted in assay buffer. The IL-17A was incubated with the receptor for a further 90 minutes at room temperature before addition of 5 μL of a mixture of anti-human Fc IgG acceptor beads (75 μg/mL, Perkin Elmer AL103C) and anti-IL-17A biotin conjugated antibody (5 nM, Enzo Life Sciences, ENZ-ABS278-0100) in assay buffer. After a further 30 min incubation at room temperature, 5 μL of streptavidin donor beads ([…], Perkin Elmer 6760002S) were added and the plate was incubated for 3 h in the dark.
The luminescence signal was measured using an Enspire plate reader (Perkin Elmer) with excitation at 680 nm and emission at 615 nm. Data were analysed using GraphPad Prism and fitted to a 4-parameter logistic equation. The IC50 values were calculated using the DMSO vehicle as the negative control and a high concentration (6 μM) of a reference IL-17A inhibitor as the positive control.
Activity of the Example compounds is reported as a PIC50 value in Table A.

[1] = compounds pre-incubated with the IL-17A for 30 min (indicated by * in Table A)
[2] = compounds pre-incubated with the IL-17A for 24 h at room temperature

Structure (SMILES) | IC50 [1] [nM] | IC50 [2] [nM]
Cc1cncc(C)c1-c1ccc(NC(=O)[C@@H](NC(=O)c2ccnn2C)C2CCC(F)(F)CC2)cc1 (single isomer, unassigned) [Example 98] | 251 | 
Cc1cncc(C)c1-c1ccc(NC(=O)[C@@H](NC(=O)c2ccnn2C)C2CCC(C)(C)CC2)cc1 (single isomer, unassigned) [Example 100] | 200 | 
Cc1nccc(-c2ccc(NC(=O)[C@@H](NC(=O)c3ccnn3C)C(c3ccccc3)c3ccccc3)cc2)c1C [Example 1, (S)—N-(1-((4-(2,3-dimethylpyridin-4-yl)phenyl)amino)-1-oxo-3,3-diphenylpropan-2-yl)-1-methyl-1H-pyrazole-5-carboxamide] |  | 50.1
Cn1nccc1C(=O)N[C@H](C(=O)Nc1ccc(-c2ccncc2Cl)cc1)C(c1ccccc1)c1ccccc1 [Example 2, (S)—N-(1-((4-(3-chloropyridin-4-yl)phenyl)amino)-1-oxo-3,3-diphenylpropan-2-yl)-1-methyl-1H-pyrazole-5-carboxamide] |  | 31.6
COc1cnccc1-c1ccc(NC(=O)[C@@H](NC(=O)c2ccnn2C)C(c2ccccc2)c2ccccc2)cc1 [Example 3, (S)—N-(1-((4-(3-methoxypyridin-4-yl)phenyl)amino)-1-oxo-3,3-diphenylpropan-2-yl)-1-methyl-1H-pyrazole-5-carboxamide] |  | 12.6
Cc1cnccc1-c1ccc(NC(=O)[C@@H](NC(=O)c2ccnn2C)C(c2ccccc2)c2ccccc2)cc1 [Example 4, (S)-1-methyl-N-(1-((4-(3-methylpyridin-4-yl)phenyl)amino)-1-oxo-3,3-diphenylpropan-2-yl)-1H-pyrazole-5-carboxamide] |  | 20
Cn1nccc1C(=O)N[C@H](C(=O)Nc1ccc(-c2ccncc2C(F)(F)F)cc1)C(c1ccccc1)c1ccccc1 [Example 5, (S)-1-methyl-N-(1-oxo-3,3-diphenyl-1-((4-(3-(trifluoromethyl)pyridin-4-yl)phenyl)amino)propan-2-yl)-1H-pyrazole-5-carboxamide] |  | 63.1
Cc1cncc(C)c1-c1ccc(NC(=O)[C@@H](NC(=O)c2ccnn2C)C(c2ccccc2)c2ccccc2)cc1 [Example 6, (S)—N-(1-((4-(3,5-dimethylpyridin-4-yl)phenyl)amino)-1-oxo-3,3-diphenylpropan-2-yl)-1-methyl-1H-pyrazole-5-carboxamide] |  | 12.6
CNc1cnccc1-c1ccc(NC(=O)[C@@H](NC(=O)c2ccnn2C)C(c2ccccc2)c2ccccc2)cc1 [Example 7, (S)-1-methyl-N-(1-((4-(3-(methylamino)pyridin-4-yl)phenyl)amino)-1-oxo-3,3-diphenylpropan-2-yl)-1H-pyrazole-5-carboxamide] |  | 12.6
CN(C)c1cnccc1-c1ccc(NC(=O)[C@@H](NC(=O)c2ccnn2C)C(c2ccccc2)c2ccccc2)cc1 [Example 8, (S)—N-(1-((4-(3-(dimethylamino)pyridin-4-yl)phenyl)amino)-1-oxo-3,3-diphenylpropan-2-yl)-1-methyl-1H-pyrazole-5-carboxamide] |  | 15.8
COc1cncc(OC)c1-c1ccc(NC(=O)[C@@H](NC(=O)c2ccnn2C)C(c2ccccc2)c2ccccc2)cc1 [Example 9, (S)—N-(1-((4-(3,5-dimethoxypyridin-4-yl)phenyl)amino)-1-oxo-3,3-diphenylpropan-2-yl)-1-methyl-1H-pyrazole-5-carboxamide] |  | 6.31
COc1cncc(F)c1-c1ccc(NC(=O)[C@@H](NC(=O)c2ccnn2C)C(c2ccccc2)c2ccccc2)cc1 [Example 10, (S)—N-(1-((4-(3-fluoro-5-methoxypyridin-4-yl)phenyl)amino)-1-oxo-3,3-diphenylpropan-2-yl)-1-methyl-1H-pyrazole-5-carboxamide] |  | 7.94
Cc1[nH]c(=O)ccc1-c1ccc(NC(=O)[C@@H](NC(=O)c2ccnn2C)C(c2ccccc2)c2ccccc2)cc1 [Example 11, (S)-1-methyl-N-(1-((4-(2-methyl-6-oxo-1,6-dihydropyridin-3-yl)phenyl)amino)-1-oxo-3,3-diphenylpropan-2-yl)-1H-pyrazole-5-carboxamide] |  | 15.8
Cc1cc(=O)n(C)cc1-c1ccc(NC(=O)[C@@H](NC(=O)c2ccnn2C)C(c2ccccc2)c2ccccc2)cc1 [Example 12, (S)—N-(1-((4-(1,4-dimethyl-6-oxo-1,6-dihydropyridin-3-yl)phenyl)amino)-1-oxo-3,3-diphenylpropan-2-yl)-1-methyl-1H-pyrazole-5-carboxamide] |  | 10
Cc1c(-c2ccc(NC(=O)[C@@H](NC(=O)c3ccnn3C)C(c3ccccc3)c3ccccc3)cc2)ccc(=O)n1C [Example 13, (S)—N-(1-((4-(1,2-dimethyl-6-oxo-1,6-dihydropyridin-3-yl)phenyl)amino)-1-oxo-3,3-diphenylpropan-2-yl)-1-methyl-1H-pyrazole-5-carboxamide] |  | 7.94
Cc1cncc(C)c1-c1ccc(NC(=O)[C@@H](NC(=O)c2ccnn2C)C(c2ccccc2)c2ccccc2)cc1F [Example 14, (S)—N-(1-((4-(3,5-dimethylpyridin-4-yl)-3-fluorophenyl)amino)-1-oxo-3,3-diphenylpropan-2-yl)-1-methyl-1H-pyrazole-5-carboxamide] |  | 39.8
Cc1cnccc1-c1ccc(NC(=O)[C@@H](NC(=O)c2ccnn2C)C(c2ccccc2)c2ccccc2)cc1F [Example 15, (S)—N-(1-((3-fluoro-4-(3-methylpyridin-4-yl)phenyl)amino)-1-oxo-3,3-diphenylpropan-2-yl)-1-methyl-1H-pyrazole-5-carboxamide] |  | 50.1
Cc1c(-c2ccc(NC(=O)[C@@H](NC(=O)c3ccnn3C)C(c3ccccc3)c3ccccc3)cc2F)ccc(=O)n1C [Example 16, (S)—N-(1-((4-(1,2-dimethyl-6-oxo-1,6-dihydropyridin-3-yl)-3-fluorophenyl)amino)-1-oxo-3,3-diphenylpropan-2-yl)-1-methyl-1H-pyrazole-5-carboxamide] |  | 15.8
Cc1cc(=O)n(C)cc1-c1ccc(NC(=O)[C@@H](NC(=O)c2ccnn2C)C(c2ccccc2)c2ccccc2)cc1F [Example 17, (S)—N-(1-((4-(1,4-dimethyl-6-oxo-1,6-dihydropyridin-3-yl)-3-fluorophenyl)amino)-1-oxo-3,3-diphenylpropan-2-yl)-1-methyl-1H-pyrazole-5-carboxamide] |  | 15.8
COc1cncc(F)c1-c1ccc(NC(=O)[C@@H](NC(=O)c2ccnn2C)C(c2ccccc2)c2ccccc2)cc1F [Example 18, N-((2S)-1-((3-fluoro-4-(3-fluoro-5-methoxypyridin-4-yl)phenyl)amino)-1-oxo-3,3-diphenylpropan-2-yl)-1-methyl-1H-pyrazole-5-carboxamide] |  | 31.6
COc1cnccc1-c1ccc(NC(=O)[C@@H](NC(=O)c2ccnn2C)C(c2ccc(F)cc2)c2ccc(F)cc2)cc1 [Example 19, (S)—N-(1,1-bis(4-fluorophenyl)-3-((4-(3-methoxypyridin-4-yl)phenyl)amino)-3-oxopropan-2-yl)-1-methyl-1H-pyrazole-5-carboxamide] |  | 63.1
COc1cnccc1-c1ccc(NC(=O)[C@@H](NC(=O)c2ccnn2C)C(c2ccccc2)c2ccccc2)cc1C [Example 20, (S)—N-(1-((4-(3-methoxypyridin-4-yl)-3-methylphenyl)amino)-1-oxo-3,3-diphenylpropan-2-yl)-1-methyl-1H-pyrazole-5-carboxamide] |  | 31.6
Cn1nccc1C(=O)N[C@H](C(=O)Nc1ccc(-c2ccnc3[nH]ccc23)cc1)C(c1ccccc1)c1ccccc1 [Example 21, (S)—N-(1-((4-(1H-pyrrolo[2,3-b]pyridin-4-yl)phenyl)amino)-1-oxo-3,3-diphenylpropan-2-yl)-1-methyl-1H-pyrazole-5-carboxamide] |  | 39.8
Cn1nccc1C(=O)N[C@H](C(=O)Nc1ccc(-c2ccnc3c2CCN3)cc1)C(c1ccccc1)c1ccccc1 [Example 22, (S)—N-(1-((4-(2,3-dihydro-1H-pyrrolo[2,3-b]pyridin-4-yl)phenyl)amino)-1-oxo-3,3-diphenylpropan-2-yl)-1-methyl-1H-pyrazole-5-carboxamide] |  | 25.1
COc1cnccc1-c1ccc(NC(=O)[C@@H](NC(=O)c2ccnn2C)C(c2ccccc2)c2ccccc2)c(F)c1 [Example 23, (S)—N-(1-((2-fluoro-4-(3-methoxypyridin-4-yl)phenyl)amino)-1-oxo-3,3-diphenylpropan-2-yl)-1-methyl-1H-pyrazole-5-carboxamide] |  | 39.8
